Laboratory results from the kinase profiling compilation of Christmann-Franck et al. (2016).

Experiments:
Test in all cases: KINOMEscan competition binding
Conditions in all cases: compound 10.0 µM
TNK1 (human) = TNK1 (human) (UniProt Q13470)
CDK17 (human) = CDK17 (human) (UniProt Q00537)
BMPR1A (human) = BMPR1A (human) (UniProt P36894)
ZAP70 (human) = ZAP70 (human) (UniProt P43403)
CSK (human) = CSK (human) (UniProt P41240)
PRKG1 (human) = PRKG1 (human) (UniProt Q13976)
FGFR2 (human) = FGFR2 (human) (UniProt P21802)
AKT3 (human) = AKT3 (human) (UniProt Q9Y243)
ACVR2A (human) = ACVR2A (human) (UniProt P27037)
TAOK1 (human) = TAOK1 (human) (UniProt Q7L7X3)
Chain of TAOK1 (human) (Q7L7X3 whole entry, looked up): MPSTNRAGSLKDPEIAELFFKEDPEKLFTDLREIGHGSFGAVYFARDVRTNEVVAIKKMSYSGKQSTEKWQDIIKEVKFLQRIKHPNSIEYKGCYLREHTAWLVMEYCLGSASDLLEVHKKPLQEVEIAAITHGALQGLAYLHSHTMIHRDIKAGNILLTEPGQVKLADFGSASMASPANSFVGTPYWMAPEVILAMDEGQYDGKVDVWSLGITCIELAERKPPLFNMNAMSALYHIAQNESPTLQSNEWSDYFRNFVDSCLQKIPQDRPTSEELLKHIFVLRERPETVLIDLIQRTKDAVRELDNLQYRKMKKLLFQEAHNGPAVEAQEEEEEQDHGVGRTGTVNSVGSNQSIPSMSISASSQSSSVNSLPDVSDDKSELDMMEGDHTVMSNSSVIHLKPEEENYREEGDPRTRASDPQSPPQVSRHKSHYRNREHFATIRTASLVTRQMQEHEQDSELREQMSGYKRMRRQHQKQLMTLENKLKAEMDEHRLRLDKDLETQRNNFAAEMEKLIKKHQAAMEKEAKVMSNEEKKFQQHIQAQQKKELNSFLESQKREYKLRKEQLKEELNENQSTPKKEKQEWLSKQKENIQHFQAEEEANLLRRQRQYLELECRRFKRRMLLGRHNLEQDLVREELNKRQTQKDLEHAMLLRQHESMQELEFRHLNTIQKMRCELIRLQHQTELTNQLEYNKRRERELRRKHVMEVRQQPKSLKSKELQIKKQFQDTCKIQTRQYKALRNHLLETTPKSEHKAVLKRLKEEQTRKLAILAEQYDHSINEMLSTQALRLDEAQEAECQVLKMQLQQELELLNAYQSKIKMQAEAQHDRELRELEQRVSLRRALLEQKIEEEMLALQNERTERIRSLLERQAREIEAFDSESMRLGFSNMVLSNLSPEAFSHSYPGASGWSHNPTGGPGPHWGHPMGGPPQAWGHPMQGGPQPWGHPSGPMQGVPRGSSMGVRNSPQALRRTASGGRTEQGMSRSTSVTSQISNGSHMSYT

TEK (human) = TEK (human) (UniProt Q02763)
Chain of TEK (human) (Q02763 whole entry, looked up): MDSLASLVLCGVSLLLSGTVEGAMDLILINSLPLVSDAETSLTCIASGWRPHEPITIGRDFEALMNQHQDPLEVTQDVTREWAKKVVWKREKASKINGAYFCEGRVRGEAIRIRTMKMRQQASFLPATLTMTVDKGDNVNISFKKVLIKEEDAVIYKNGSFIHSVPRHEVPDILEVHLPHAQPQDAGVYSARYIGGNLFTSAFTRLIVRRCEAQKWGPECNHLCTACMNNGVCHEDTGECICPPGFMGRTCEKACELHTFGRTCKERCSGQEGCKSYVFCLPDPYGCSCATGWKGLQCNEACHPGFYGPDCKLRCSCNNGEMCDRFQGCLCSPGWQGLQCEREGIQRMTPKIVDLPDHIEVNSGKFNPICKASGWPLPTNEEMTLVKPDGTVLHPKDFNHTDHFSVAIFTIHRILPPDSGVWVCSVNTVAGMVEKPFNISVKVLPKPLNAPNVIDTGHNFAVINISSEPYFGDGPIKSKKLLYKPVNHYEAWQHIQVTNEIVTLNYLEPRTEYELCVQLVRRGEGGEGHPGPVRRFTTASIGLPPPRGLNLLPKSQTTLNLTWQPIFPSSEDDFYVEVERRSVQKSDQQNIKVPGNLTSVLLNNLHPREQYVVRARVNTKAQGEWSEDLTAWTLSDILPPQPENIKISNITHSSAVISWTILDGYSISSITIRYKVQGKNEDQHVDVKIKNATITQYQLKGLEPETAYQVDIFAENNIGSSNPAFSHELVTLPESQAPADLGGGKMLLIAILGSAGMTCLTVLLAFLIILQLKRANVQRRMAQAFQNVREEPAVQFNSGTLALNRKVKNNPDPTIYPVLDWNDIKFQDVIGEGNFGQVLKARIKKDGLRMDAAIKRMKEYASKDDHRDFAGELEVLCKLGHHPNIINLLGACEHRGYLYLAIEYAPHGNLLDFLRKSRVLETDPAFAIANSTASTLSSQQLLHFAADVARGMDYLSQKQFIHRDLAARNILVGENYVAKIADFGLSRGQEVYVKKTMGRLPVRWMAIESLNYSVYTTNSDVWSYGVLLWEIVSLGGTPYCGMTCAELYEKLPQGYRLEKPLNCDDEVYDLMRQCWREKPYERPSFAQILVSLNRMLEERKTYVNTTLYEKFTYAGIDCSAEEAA

[1] = biological target: JAK1 JH1 catalytic (human) (UniProt P23458)
EPHA7 (human) = EPHA7 (human) (UniProt Q15375)
STK3 (human) = STK3 (human) (UniProt Q13188)
[2] = test system: FLT3 (human), P36888 [N841I]
PAK1 (human) = PAK1 (human) (UniProt Q13153)
CHEK2 (human) = CHEK2 (human) (UniProt O96017)
PRKCD (human) = PRKCD (human) (UniProt Q05655)
Chain of PRKCD (human) (Q05655 whole entry, looked up): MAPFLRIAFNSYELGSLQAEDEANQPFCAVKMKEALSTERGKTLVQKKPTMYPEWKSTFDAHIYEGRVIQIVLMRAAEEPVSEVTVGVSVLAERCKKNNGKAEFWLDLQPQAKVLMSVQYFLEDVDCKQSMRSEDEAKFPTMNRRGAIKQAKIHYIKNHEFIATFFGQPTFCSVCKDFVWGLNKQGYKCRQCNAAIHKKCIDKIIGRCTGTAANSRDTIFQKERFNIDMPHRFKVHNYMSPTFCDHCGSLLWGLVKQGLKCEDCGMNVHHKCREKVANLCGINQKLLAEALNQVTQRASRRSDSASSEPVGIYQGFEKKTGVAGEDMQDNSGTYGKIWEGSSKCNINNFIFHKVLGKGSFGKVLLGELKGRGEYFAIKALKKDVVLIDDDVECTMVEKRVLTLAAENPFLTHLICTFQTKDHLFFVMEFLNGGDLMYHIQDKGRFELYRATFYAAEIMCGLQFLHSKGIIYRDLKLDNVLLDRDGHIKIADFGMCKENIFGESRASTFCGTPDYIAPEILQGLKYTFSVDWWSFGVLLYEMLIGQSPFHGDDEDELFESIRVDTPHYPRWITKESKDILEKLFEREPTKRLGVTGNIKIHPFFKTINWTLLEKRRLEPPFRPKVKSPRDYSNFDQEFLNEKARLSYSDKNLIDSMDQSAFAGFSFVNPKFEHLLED

NUAK2 (human) = NUAK2 (human) (UniProt Q9H093)
PIM3 (human) = PIM3 (human) (UniProt Q86V86)
MAPK10 (human) = MAPK10 (human) (UniProt P53779)
MAPK4 (human) = MAPK4 (human) (UniProt P31152)
Chain of MAPK4 (human) (P31152 whole entry, looked up): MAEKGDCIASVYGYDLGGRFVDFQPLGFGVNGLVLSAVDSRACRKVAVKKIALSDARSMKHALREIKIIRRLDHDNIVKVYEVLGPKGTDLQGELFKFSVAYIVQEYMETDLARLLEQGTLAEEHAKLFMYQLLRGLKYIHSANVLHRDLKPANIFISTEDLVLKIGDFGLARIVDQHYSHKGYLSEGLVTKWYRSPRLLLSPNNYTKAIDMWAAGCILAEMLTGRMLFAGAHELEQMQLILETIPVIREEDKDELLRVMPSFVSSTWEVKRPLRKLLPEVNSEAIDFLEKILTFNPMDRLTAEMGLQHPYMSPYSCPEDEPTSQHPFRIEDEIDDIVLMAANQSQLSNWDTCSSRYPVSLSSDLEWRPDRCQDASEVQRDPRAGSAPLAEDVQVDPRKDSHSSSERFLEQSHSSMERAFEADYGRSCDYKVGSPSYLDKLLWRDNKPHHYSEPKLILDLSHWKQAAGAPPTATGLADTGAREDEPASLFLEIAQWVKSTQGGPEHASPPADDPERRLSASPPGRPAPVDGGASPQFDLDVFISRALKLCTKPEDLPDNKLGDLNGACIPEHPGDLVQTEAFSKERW

MST1R (human) = MST1R (human) (UniProt Q04912)
DMPK (human) = DMPK (human) (UniProt Q09013)
MST4 (human) = MST4 (human) (UniProt Q9P289)
CDKL2 (human) = CDKL2 (human) (UniProt Q92772)
FER (human) = FER (human) (UniProt P16591)
Chain of FER (human) (P16591 whole entry, looked up): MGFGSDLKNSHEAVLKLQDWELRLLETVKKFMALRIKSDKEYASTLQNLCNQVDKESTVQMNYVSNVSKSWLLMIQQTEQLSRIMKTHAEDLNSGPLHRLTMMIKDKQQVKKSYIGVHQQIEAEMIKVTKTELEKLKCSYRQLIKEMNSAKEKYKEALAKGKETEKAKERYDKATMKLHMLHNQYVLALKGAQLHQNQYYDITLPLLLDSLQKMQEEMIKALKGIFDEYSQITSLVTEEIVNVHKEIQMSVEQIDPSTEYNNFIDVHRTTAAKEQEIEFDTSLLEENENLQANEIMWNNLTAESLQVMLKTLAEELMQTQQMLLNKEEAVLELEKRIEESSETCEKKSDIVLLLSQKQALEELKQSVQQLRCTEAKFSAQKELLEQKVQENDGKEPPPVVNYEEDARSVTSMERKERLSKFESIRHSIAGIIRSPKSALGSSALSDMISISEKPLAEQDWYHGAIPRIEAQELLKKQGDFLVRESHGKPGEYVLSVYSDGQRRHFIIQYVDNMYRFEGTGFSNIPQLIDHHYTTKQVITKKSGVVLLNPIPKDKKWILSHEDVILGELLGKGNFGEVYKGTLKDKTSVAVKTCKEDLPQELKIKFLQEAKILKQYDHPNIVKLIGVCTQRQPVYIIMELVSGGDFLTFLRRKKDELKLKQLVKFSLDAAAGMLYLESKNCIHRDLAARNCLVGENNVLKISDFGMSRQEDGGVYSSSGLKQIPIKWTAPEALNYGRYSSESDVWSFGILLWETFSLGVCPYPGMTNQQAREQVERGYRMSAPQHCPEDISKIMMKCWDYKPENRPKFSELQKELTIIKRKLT

[3] = test system: EIF2AK4 KD2 (human), Q9P2K8 [S808G]
TYRO3 (human) = TYRO3 (human) (UniProt Q06418)
STK35 (human) = STK35 (human) (UniProt Q8TDR2)
NEK6 (human) = NEK6 (human) (UniProt Q9HC98)
RPS6KA2 KD1 (human) = RPS6KA2 KD1 (human) (UniProt Q15349)
CSNK2A1 (human) = CSNK2A1 (human) (UniProt P68400)
[4] = biological target: JAK1 JH2 pseudokinase (human) (UniProt P23458)
TNNI3K (human) = TNNI3K (human) (UniProt Q59H18)
RIPK1 (human) = RIPK1 (human) (UniProt Q13546)
RPS6KA5 KD2 (human) = RPS6KA5 KD2 (human) (UniProt O75582)
TNK2 (human) = TNK2 (human) (UniProt Q07912)
PIM1 (human) = PIM1 (human) (UniProt P11309)
Chain of PIM1 (human) (P11309 whole entry, looked up): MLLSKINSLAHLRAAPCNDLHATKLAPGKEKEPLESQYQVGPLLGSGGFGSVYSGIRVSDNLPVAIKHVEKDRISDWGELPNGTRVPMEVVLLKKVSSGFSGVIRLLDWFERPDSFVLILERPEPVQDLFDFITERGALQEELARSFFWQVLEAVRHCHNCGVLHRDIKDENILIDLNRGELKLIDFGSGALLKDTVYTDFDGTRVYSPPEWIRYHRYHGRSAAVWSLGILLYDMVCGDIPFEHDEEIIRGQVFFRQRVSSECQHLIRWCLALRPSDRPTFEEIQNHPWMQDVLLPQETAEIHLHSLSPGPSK

EPHA6 (human) = EPHA6 (human) (UniProt Q9UF33)

Chain of CDK17 (human) (Q00537 whole entry, looked up): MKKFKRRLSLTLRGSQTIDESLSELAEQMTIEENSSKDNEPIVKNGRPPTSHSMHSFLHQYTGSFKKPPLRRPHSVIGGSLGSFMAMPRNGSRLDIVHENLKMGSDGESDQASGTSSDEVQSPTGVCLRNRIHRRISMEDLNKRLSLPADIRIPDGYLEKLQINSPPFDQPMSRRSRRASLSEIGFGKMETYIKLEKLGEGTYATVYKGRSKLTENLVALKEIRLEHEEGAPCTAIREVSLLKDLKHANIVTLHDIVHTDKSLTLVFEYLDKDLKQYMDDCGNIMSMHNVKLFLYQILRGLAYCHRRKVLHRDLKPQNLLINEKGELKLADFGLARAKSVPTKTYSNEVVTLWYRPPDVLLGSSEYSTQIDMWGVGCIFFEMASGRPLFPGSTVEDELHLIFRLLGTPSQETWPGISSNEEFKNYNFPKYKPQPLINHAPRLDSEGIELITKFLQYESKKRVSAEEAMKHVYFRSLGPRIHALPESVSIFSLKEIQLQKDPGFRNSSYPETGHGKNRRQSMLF

SMILES	kinase still bound, per cent of control (TNK1 (human))	kinase still bound, per cent of control (CDK17 (human))	kinase still bound, per cent of control (BMPR1A (human))	kinase still bound, per cent of control (ZAP70 (human))	kinase still bound, per cent of control (CSK (human))	kinase still bound, per cent of control (PRKG1 (human))	kinase still bound, per cent of control (FGFR2 (human))	kinase still bound, per cent of control (AKT3 (human))	kinase still bound, per cent of control (ACVR2A (human))	kinase still bound, per cent of control (TAOK1 (human))	kinase still bound, per cent of control (TEK (human))	kinase still bound, per cent of control [1]	kinase still bound, per cent of control (EPHA7 (human))	kinase still bound, per cent of control (STK3 (human))	kinase still bound, per cent of control [2]	kinase still bound, per cent of control (PAK1 (human))	kinase still bound, per cent of control (CHEK2 (human))	kinase still bound, per cent of control (PRKCD (human))	kinase still bound, per cent of control (NUAK2 (human))	kinase still bound, per cent of control (PIM3 (human))	also measured
Cn1c(=O)n(-c2ccc(C(C)(C)C#N)cc2)c2c3cc(-c4cnc5ccccc5c4)ccc3ncc21	100%	100%	100%	100%	100%	100%	100%	100%	100%	100%	100%	16%	100%	100%	100%	100%	100%	100%	100%	100%	kinase still bound, per cent of control (MAPK10 (human)): 100%; kinase still bound, per cent of control (MAPK4 (human)): 100%; kinase still bound, per cent of control (MST1R (human)): 100%; kinase still bound, per cent of control (DMPK (human)): 100%; kinase still bound, per cent of control (MST4 (human)): 100%; kinase still bound, per cent of control (CDKL2 (human)): 28%; kinase still bound, per cent of control (FER (human)): 100%; kinase still bound, per cent of control [3]: 100%; kinase still bound, per cent of control (TYRO3 (human)): 100%; kinase still bound, per cent of control (STK35 (human)): 100%; kinase still bound, per cent of control (NEK6 (human)): 100%; kinase still bound, per cent of control (RPS6KA2 KD1 (human)): 100%; kinase still bound, per cent of control (CSNK2A1 (human)): 100%; kinase still bound, per cent of control [4]: 100%; kinase still bound, per cent of control (TNNI3K (human)): 100%; kinase still bound, per cent of control (RIPK1 (human)): 100%; kinase still bound, per cent of control (RPS6KA5 KD2 (human)): 100%; kinase still bound, per cent of control (TNK2 (human)): 100%; kinase still bound, per cent of control (PIM1 (human)): 100%; kinase still bound, per cent of control (EPHA6 (human)): 100%
C=CC(=O)Nc1cccc(Oc2nc(Nc3ccc(N4CCN(C)CC4)cc3OC)ncc2Cl)c1	1.8%	100%	100%	100%	100%	100%	100%	100%	100%	100%	100%	100%	100%	100%	0.25%	100%	8.8%	100%	0.3%	100%	kinase still bound, per cent of control (MAPK10 (human)): 13%; kinase still bound, per cent of control (MAPK4 (human)): 100%; kinase still bound, per cent of control (MST1R (human)): 100%; kinase still bound, per cent of control (DMPK (human)): 17%; kinase still bound, per cent of control (MST4 (human)): 100%; kinase still bound, per cent of control (CDKL2 (human)): 100%; kinase still bound, per cent of control (FER (human)): 11%; kinase still bound, per cent of control [3]: 0.35%; kinase still bound, per cent of control (TYRO3 (human)): 100%; kinase still bound, per cent of control (STK35 (human)): 100%; kinase still bound, per cent of control (NEK6 (human)): 9%; kinase still bound, per cent of control (RPS6KA2 KD1 (human)): 16%; kinase still bound, per cent of control (CSNK2A1 (human)): 100%; kinase still bound, per cent of control [4]: 100%; kinase still bound, per cent of control (TNNI3K (human)): 100%; kinase still bound, per cent of control (RIPK1 (human)): 9.4%; kinase still bound, per cent of control (RPS6KA5 KD2 (human)): 100%; kinase still bound, per cent of control (TNK2 (human)): 18%; kinase still bound, per cent of control (PIM1 (human)): 100%; kinase still bound, per cent of control (EPHA6 (human)): 100%
